# Where two headings read alike, the source gives them in different places.
# Experiments:
# [1] = biological target: T1, FimHtrJ96 (Escherichia coli, UniProt P08191); assay: biochemical; format: binding, uropathogenic E. coli strain J96
# T1 construct: coding for the lectin domain of FimH (residues 1-158) with a C-terminal 6-histidine tag; made in house; host or cells: E. coli HB101 (lacking the fim operon), periplasmic extract, plasmid pPKL241
# Procedure: To measure the dissociation constant for FimH:alkyl or aryl-mannoside binding, two different binding assays were developed. The first binding assay uses [^3H]-mannose. The amount of radioactively labeled mannose bound to FimHtrJ96 was measured at six different concentrations of [^3H]-mannose, and a hyperbolic curve fitted to the resulting data (FIG. 1A). FimHtrJ96 corresponds to the carbohydrate (mannose) binding domain of FimH from the uropathogenic E. coli strain J96. The dissociation equilibrium constant was determined from this graph at the concentration of mannose […], which corresponds to occupation of half of the binding sites.
# Surface Plasmon Resonance measurements were performed on a Biacore3000™. In a first experiment, the kinetic constants and maximal binding were determined for the FimH-antibody interaction. Next, a fixed concentration of FimH (close to the KD of the FimH-antibody interaction) in combination with varying concentrations of carbohydrate, were used to determine the dissociation equilibrium constant of the FimH-saccharide interaction in a competition experiment. Every measurement was repeated at least twice, including testing the variation between different protein and saccharide batches.
# (§1) To eliminate the possibility of different binding strength for full length FimH and FimHtrJ96, the binding of alpha-D-mannose to FimC:FimH complex was also measured. […] The inhibition of [^3H]-mannose binding was used in a displacement assay to determine the dissociation constant for a synthetic butyl mannoside by measuring the amount of [^3H]-mannose bound to the protein in the presence of increasing amounts of the inhibitor (FIG. 1B). […] To investigate the effect of sequential addition of methyl groups to the O1 oxygen of D-mannose, a series of alkyl mannosides were synthesized and the dissociation constants determined using the [^3H]-mannose displacement assay and by surface plasmon resonance (Table 1).
# Surface Plasmon Resonance measurements were performed on a Biacore3000™. The Fab fragments of a monoclonal antibody against FimH were covalently immobilised via lysines at 1000 Resonance Units (1000 pg ligand/mm^2) in flowcell Fc2 on a CM5 biasensor chip (BIAapplications Handbook, Biacore AB, Uppsala, Sweden). Immobilisation buffer was 100 mM NaAc pH 5.0 with 100 mM NaCl. The reference flowcell Fc1 was left blank.
# Binding of FimH to the immobilized antibody was measured with a Biacore 3000 instrument in running buffer (phosphate buffered saline with 0.005% surfactant P20 and 3 mM EDTA), on both flowcells Fc1 and Fc2 simultaneously, at a flow rate of 30 μl/min and at 25° C. Complete dissociation of FimH was done with running buffer before starting a new binding cycle. For all measurements, the association time was 3 minutes, the dissociation time was 30 min. All binding cycles were performed in duplicate, including a zero concentration cycle of FimH (injection of running buffer).
# In a first experiment, the kinetic constants, ka and kd, and the maximal binding Rmax, were determined for the FimH-antibody interaction (FimH concentrations (nM): 2000, 1000, 500, 250, 125, 62.5, 31.25, 15.625, 7.818, 3.911, 1.957, 0). All analyses were performed with the BIAeval software. A Langmuir binding isotherm with a 1:1 stoichiometry was fitted to the data, from which the kinetic constants and maximal binding were obtained.
# In the next experiment, samples containing a fixed concentration of FimH (close to the KD of the FimH-antibody interaction) in combination with varying concentrations of saccharide, were used to determine the dissociation constant of the FimH-saccharide interaction in a competition experiment. First, ten-fold dilutions of the saccharide solution were used to determine the concentration range for binding of the saccharide to FimH.
# [2] = biological target: T2, FimC:FimH complex (Escherichia coli, UniProt P08191); assay: Binding of alpha-D-mannose to full length FimH in FimC:FimH complex; set-up: species or system E. coli
# T2 construct: lectin domain (residues 1-158) is joined to a carboxy-terminal pilin domain (residues 159-279)
# Procedure: as §1
# T1 sequence (P08191 22-179): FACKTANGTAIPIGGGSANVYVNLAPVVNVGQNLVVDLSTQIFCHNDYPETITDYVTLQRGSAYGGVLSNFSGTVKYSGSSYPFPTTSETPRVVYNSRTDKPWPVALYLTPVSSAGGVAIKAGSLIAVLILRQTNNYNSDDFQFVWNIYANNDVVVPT
# T2 sequence (P08191 22-300): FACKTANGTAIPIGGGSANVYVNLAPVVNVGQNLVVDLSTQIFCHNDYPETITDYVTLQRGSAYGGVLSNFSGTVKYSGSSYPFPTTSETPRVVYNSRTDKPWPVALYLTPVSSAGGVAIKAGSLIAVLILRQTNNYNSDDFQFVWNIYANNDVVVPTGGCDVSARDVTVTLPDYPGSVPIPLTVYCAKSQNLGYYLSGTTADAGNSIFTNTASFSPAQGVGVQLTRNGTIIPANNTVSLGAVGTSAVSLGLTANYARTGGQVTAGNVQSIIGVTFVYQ
# T2 sequence (P31697 37-241, further chain): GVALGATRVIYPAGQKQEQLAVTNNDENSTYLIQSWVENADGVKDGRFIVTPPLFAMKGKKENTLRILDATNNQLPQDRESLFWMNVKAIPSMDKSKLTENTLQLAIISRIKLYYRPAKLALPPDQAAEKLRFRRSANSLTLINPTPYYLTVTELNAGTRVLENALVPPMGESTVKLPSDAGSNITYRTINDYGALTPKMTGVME
smiles,measurement,setting,value
"OC[C@H]1O[C@H](O)[C@@H](O)[C@@H](O)[C@@H]1O [Mannose, α-D-mannose]",Kd,[1],2.3 µM
same,Kd,"[1]; Table 1, O1 alkyl and aryl mannosides, SPR and displacement binding experiments",2.3 µM
same,ΔG°,"[1]; Table 1, calculated from KD",-7.6 kcal/mol
same,ΔG° J96,"[1]; Table 3, calculated from KD",-7.6 kcal/mol
same,Kd,"[1]; read-out: KD J96, Table 3, [3H]-mannose displacement assay (mannose measured directly)",2.3 µM
same,Kd,[2],2.3 µM
